# Measurements: article PMC7144934, “Design, Synthesis and Biological Evaluation of Phenyl Urea Derivatives as IDO1 Inhibitors” (Molecules, 2020)
# Entries after “also recorded” stand apart in the source; their conditions may differ. Where two headings read alike, the source gives them in different places.
# Assays:
# IDO1 = tested on: IDO1; design: method as in PMID 30760888; details: Figure 1; cited from earlier work
# human IDO1 = tested on: human IDO1; design: method as in earlier work; details: human IDO1/HEK 293 cells; read-out: IDO1 inhibitory activity IC50; cited from earlier work
# [1] = target: T1, Recombinant human TDO (rhTDO) (Homo sapiens, UniProt P48775); test: Enzyme assay for TDO inhibition; assay type: biochemical; details: 37 °C, 45 min
# T1 construct: made in house
# T1 sequence (P48775 whole entry): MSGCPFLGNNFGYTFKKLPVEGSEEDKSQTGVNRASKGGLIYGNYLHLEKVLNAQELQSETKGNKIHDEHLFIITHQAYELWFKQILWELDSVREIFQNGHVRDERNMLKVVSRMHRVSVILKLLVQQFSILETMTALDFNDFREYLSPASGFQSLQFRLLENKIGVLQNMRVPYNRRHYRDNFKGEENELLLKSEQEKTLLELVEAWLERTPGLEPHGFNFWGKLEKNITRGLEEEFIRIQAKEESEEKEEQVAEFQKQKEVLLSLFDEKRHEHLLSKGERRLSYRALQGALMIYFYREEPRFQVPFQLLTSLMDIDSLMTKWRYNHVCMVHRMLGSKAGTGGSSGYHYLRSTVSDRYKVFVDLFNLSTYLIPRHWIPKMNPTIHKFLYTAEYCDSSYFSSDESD
# Experimental: Recombinant human IDO1 and TDO were expressed and purified according to the reported procedures. The assay was performed according to the literature: A standard reaction mixture (100 µL) containing 100 mM potassium phosphate buffer (pH 6.5), 40 mM ascorbic acid (neutralized with NaOH), 200 µg/mL catalase, 20 µM methylene blue and 0.05 µM rhIDO1 or rhTDO was added to the solution containing the substrate L-tryptophan and the test sample at a determined concentration. The reaction was carried out at 37 °C for 45 min and stopped by adding 20 µL of 30% (w/v) trichloroacetic acid. After heating at 65 °C for 15 min, 100 µL of 2% (w/v) p-dimethylaminobenzaldehyde in acetic acid was added to each well. The yellow pigment derived from kynurenine was measured at 492 nm using a SYNERGY-H1 microplate reader (Biotek Instruments, Inc., Winooski, VT, USA). IC50 was analyzed using the GraphPad Prism 8.0 software (GraphPad Software, San Diego, CA, USA).
# [2] = target: T2, Recombinant human IDO1 (rhIDO1) (Homo sapiens, UniProt P14902); test: Enzyme assay for IDO1 inhibition; assay type: biochemical; details: for IC50 / IDO1 inhibitory activity (in words): rhIDO1 enzyme assay; for IC50: 37 °C, 45 min
# T2 construct: made in house
# T2 sequence (P14902 whole entry): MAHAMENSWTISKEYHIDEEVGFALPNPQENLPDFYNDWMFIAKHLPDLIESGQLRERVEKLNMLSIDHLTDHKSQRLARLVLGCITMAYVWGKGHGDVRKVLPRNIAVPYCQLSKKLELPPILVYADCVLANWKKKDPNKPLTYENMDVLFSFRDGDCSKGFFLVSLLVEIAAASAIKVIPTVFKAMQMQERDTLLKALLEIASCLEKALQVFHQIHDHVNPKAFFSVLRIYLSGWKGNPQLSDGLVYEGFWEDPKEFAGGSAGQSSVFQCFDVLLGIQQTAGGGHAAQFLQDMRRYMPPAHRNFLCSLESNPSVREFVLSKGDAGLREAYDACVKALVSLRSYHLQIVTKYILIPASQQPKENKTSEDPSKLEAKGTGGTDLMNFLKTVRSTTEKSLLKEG
# [3] = tested on: mouse pancreatic cancer cells PAN02; test: PAN02 pancreatic cancer subcutaneous xenograft model; assay type: in vivo, mice
# Experimental: (§1) The mouse pancreatic cancer cells PAN02 were cultured and harvested in saline at 6 × 10^6 cells/0.2 mL volume. Cells (0.2 mL) were injected subcutaneously into male C57BL/6 mice at day 0 of the experiment, and treatment was initiated at day 1 following the mice enrolled randomly in control and experimental groups. For control group, 0.5% CMCNa was orally administered every day. The CTX group were administered CTX intraperitoneally at the dose of 60 mg/kg Compound i12 was dissolved in 0.5% CMC-Na for oral treatment. After 15 days, the mice were sacrificed and the tumors were stripped and weighted. The tumor growth inhibition (TGI) was calculated as TGI = (1 − tumor weight treatment/tumor weight vehicle) × 100%. The statistical analysis was performed with GraphPad Prism 8.0 software and the significance level was evaluated with one-way ANOVA model.
# [4] = tested on: mouse melanoma cells B16F10; test: B16F10 subcutaneous xenograft model; assay type: in vivo, mice
# Experimental: as §1, with “melanoma” for “pancreatic cancer”, “B16F10” for “PAN02”, “100 mg/kg.” for “60 mg/kg”, “17” for “15”
# [5] = Single dose pharmacokinetic study in male C57BL/6 mice; assay type: in vivo; details: for AUC(0-inf): male, C57BL/6, mouse; for MRT inf: read-out: MRT(0–∞); for half-life: read-out: t1/2β (converted)
# Experimental: The animal Care and Welfare Committee of Institute of Materia Medica, Chinese Academy of Medical Sciences approved all animal care, housing, and laboratory procedures. Male C57BL/6 mice were used in the single dose pharmacokinetic studies. Compound i12 was prepared as a 3 mg/mL suspension with 0.5% CMC for oral use and was formulated as a 3 mg/mL solution with 10% DMSO in 20% HP-β-CD for intravenous injection. Sixteen mice were divided into two groups, 10 in the oral group and six in the intravenous group. After fasting 12 h with free access to water, mice were treated with a 3 mg/kg i.v. or 30 mg/kg oral dose of compound i12. Blood samples (50 µL) were collected at 5, 15, 30 min, 1, 2, 4, 6, 8, 12 and 24 h after oral administration and 2, 5, 15, 30 min, 1, 2, 4, 6, 8, 12 and 24 h after intravenous injection. After centrifugation, the plasma samples (20 µL) were precipitated by four volumes of acetonitrile. The supernatant were analyzed by liquid chromatography/tandem mass spectrometry with a Zorbax C18 column (50 mm × 2.1 mm, 3.5 µm). Compound detection was performed with the mass spectrometer in positive ionization mode by t-SIM: m/z 489.209 for compound i12. The pharmacokinetic parameters were calculated with WinNonlin software V6.3 using non-compartmental analysis (Pharsight Corporation, Mountain View, CA, USA).
# pathway = tested on: pathway; design: method as in PMID 30760888; details: Figure 1; cited from earlier work
smiles,measurement,setting,value
C[C@@H](C(=O)Nc1ccc(Cl)cc1)C1CCC(c2ccnc3ccc(F)cc23)CC1 (some centres unmarked) [BMS-986205],IC50,IDO1,1.7 nM
"CC(C)CN(CC(C)C)c1ccc(C(CC(=O)O)C(F)(F)F)cc1NC(=O)Nc1ccc(F)cc1F (centres unmarked) [BMS-E30, reference compound]",IC50,human IDO1,0.7 nM
same,IC50,[1],> 100 µM
same,IC50,[2],8.57 µM
"CC1CC(C)CN(c2ccc(C(CC(=O)O)C(F)(F)F)cc2NC(=O)Nc2ccccc2)C1 (centres unmarked) [i1, 3-[4-(3,5-dimethylpiperidin-1-yl)-3-(3-phenylureido)-phenyl]-4,4,4-trifluorobutyric Acid]",melting point,,94.1 to 95.7 °C
same,IC50,[1],> 100 µM
same,IC50,[2],34.1 µM
"CC1CC(C)CN(c2ccc(C(CC(=O)O)C(F)(F)F)cc2NC(=O)Nc2ccc(C#N)cc2)C1 (centres unmarked) [i12, 3-[3-[3-(4-cyanophenyl)ureido]-4-(3,5-dimethylpiperidin-1-yl)-phenyl]-4,4,4-trifluorobutyric Acid]",tumor growth inhibition (TGI),"[3]; 30 mg/kg daily, oral, 15 days, tumor weight",34.3%
same,body weight of each group after the treatment,"[3]; i12 orally 10, 30 or 100 mg/kg, PAN02 xenograft mice",no obvious body weight difference
same,tumor growth inhibition (TGI),"[4]; 15 mg/kg daily, oral, 17 days, tumor weight",40.5%
same,body weight compared with the control group,"[4]; i12 orally 15, 30 or 100 mg/kg, B16F10 xenograft mice",no obvious body weight difference; also recorded: no obvious reduction; also recorded: no significant changes
same,AUC(0–∞),"[5]; PO 30 mg/kg, 30 mg/kg","12,849 h·ng/mL"
same,AUC(0-inf),"[5]; plasma, iv, 3 mg/kg, IV 3 mg/kg",2160 ng·h/mL
same,AUC(0-inf),"[5]; plasma, po, 30 mg/kg, PO 30 mg/kg",11500 ng·h/mL
same,AUC(0-t),"[5]; mouse, plasma, IV 3 mg/kg",1320 ng·h/mL
same,Cmax,"[5]; mouse, plasma, IV 3 mg/kg",6960 ng/mL
same,clearance,"[5]; mouse, plasma, IV 3 mg/kg, read-out: Cl (plasma clearance)",22.4 mL/min/kg
same,MRT inf,"[5]; mouse, plasma, IV 3 mg/kg",8.6 h
same,Vd,"[5]; mouse, plasma, IV 3 mg/kg, read-out: Vss",15.8 L/kg
same,half-life,"[5]; mouse, plasma, IV 3 mg/kg",7.17 h
same,AUC(0-t),"[5]; mouse, plasma, PO 30 mg/kg",11500 ng·h/mL
same,Cmax,"[5]; mouse, plasma, PO 30 mg/kg",2700 ng/mL
same,Tmax,"[5]; mouse, plasma, PO 30 mg/kg",2 h
same,bioavailability,"[5]; mouse, plasma, PO 30 mg/kg vs IV 3 mg/kg, read-out: F% (oral bioavailability)",87.4%
same,MRT inf,"[5]; mouse, plasma, PO 30 mg/kg",8.18 h
same,half-life,"[5]; mouse, plasma, PO 30 mg/kg",11.2 h
same,IC50,[1],> 100 µM
same,fold improvement in IDO1 inhibitory activity compared to compound i1,[2]; ratio of IDO1 enzyme IC50 values,100 fold
same,IDO1 inhibitory activity (in words),[2],more potent IDO1 inhibitory activity than the unsubstituted i1
same,IC50,[2],0.331 µM
Cn1cc(C[C@@H](N)C(=O)O)c2ccccc21 [indoximod],IC50,pathway,450 nM
"CC1CC(C)CN(c2ccc(C(CC(=O)O)C(F)(F)F)cc2NC(=O)Cc2ccc([N+](=O)[O-])cc2)C1 (centres unmarked) [j3, 3-{4-(3,5-dimethylpiperidin-1-yl)-3-[2-(4-nitrophenyl)acetylamino]-phenyl}-4,4,4-trifluorobutyric Acid]",IC50,[1],> 100 µM
same,IDO1 inhibitory activity (in words),[2],no inhibitory activity
same,IC50,[2],> 100 µM
